Results taken from article PMC10051705, “Leishmanicidal Activity of Guanidine Derivatives against Leishmania infantum” (Tropical Medicine and Infectious Disease, 2023).
Marks after values point to notes of the source that are not given here.

Legend:
[1] = tested on: L. infantum promastigotes; experiment: promastigote growth inhibition assay (MTT); format: cell-based; conditions: Leishmania infantum, 72 h, 26 °C
Procedure: The promastigote forms of Leishmania (Leishmania) infantum [IOC/L0579(MHOM/BR/1974/PP75)] were cultured in Schneider’s medium, pH 7.0, supplemented with 20% heat-inactivated fetal bovine serum (FBS), 2% male human urine, 100 U/mL of penicillin, and 100 mg/L of streptomycin, and the parasites were maintained at 26 °C. The procedure to obtain the extracellular axenic amastigote form of L. infantum was based on methods previously described that were modified using a Schneider medium readjusted to pH 5.5 at 37 °C. The culture of promastigote forms in the stationary phase was centrifuged, and the medium of these cells was replaced and differentiated into axenic amastigotes by temperature and medium pH changes. Parasites were maintained in culture for no more than 20 passages.
The promastigote growth inhibition assay was performed as previously described. Promastigotes were harvested during the exponential growth phase. They were incubated in the presence and absence of several concentrations of LQOFG-2, LQOFG-6, LQOFG-7 (500 to 7.8 µM), and AmB (10 to 0.078 µM) as the positive control. The plate was incubated at 26 °C for 72 h in a biological oxygen demand (B.O.D.) incubator using a Schneider’s medium (Schneider’s Insect Medium 24.5 g/L; L-glutamine 1.8 g/L; glucose 2 g/L and sodium bicarbonate 0.4 g/L; Sigma-Aldrich—St. Louis—USA) supplemented. The growth inhibition was evaluated using an MTT assay kit (Amresco, Solon, OH, USA) according to the manufacturer’s protocol. After 4 h of incubation, 10% sodium dodecyl sulfate was added to dissolve the formazan crystals. The absorbance (540 nm) was measured using a plate reader (Biosystems model ELx800; Curitiba, PR, Brazil). […] Three independent experiments we performed in triplicate.

[2] = tested on: L. infantum axenic amastigotes; experiment: axenic amastigote inhibition assay (MTT); format: cell-based; conditions: Leishmania infantum, 24 h; for EC50: 37 °C, pH 5.5, MTT; for inhibition at 31.2 µM: read-out: inhibition of axenic amastigotes compared to the control (untreated)
human red blood cells = experiment: red blood cell lysis assay; format: cell-based; conditions: 1 h, 37 °C
Procedure: The hemolytic activities of guanidine compounds were measured using human red blood cells from healthy adults (n = 3) according to methods previously described. Briefly, 80 µL of a 5% erythrocyte/phosphate-buffered saline (PBS) suspension was mixed with 20 µL of LQOFG-2, LQOFG-6, LQOFG-7, (1000 to 7.8 µM), and AmB (100 to 0.78 µM). After incubation at 37 °C for 1 h, 200 µL of PBS (1.5 mM KH2PO4, 8.1 mM Na2HPO4, 136.9 mM NaCl, and 2.6 mM KCl, pH 7.2) was added to stop the hemolysis process, and the samples were centrifuged for 10 min at 1000× g. The supernatants were collected, and the extent of hemolysis was measured spectrophotometrically at 540 nm. The hemolysis percentage was determined as [(Abssam − Abscon)/(Abstot − Abscon) × 100], where Abssam is the absorbance of the sample, Abscon is the absorbance of the blank control (without drugs), and Abstot is the absorbance of total hemolysis (replacing the sample solution with an equal volume of ultrapure water (Direct-Q UV®, Guyancourt, France)).

[3] = in vitro cytotoxicity in PBMC (MTT); format: cell-based, human; conditions: both sexes, human, peripheral blood mononuclear cells (PBMCs), human PBMC, 24 h, MTT
Procedure: (§1) In vitro cytotoxicity was evaluated using peripheral blood mononuclear cells (PBMCs) collected from three healthy volunteers (2 males, mean age 33; and 1 person). PBMCs were separated by density gradient using Ficoll Paque PLUS (GE Healthcare, USA), pelleted by centrifugation (400× g for 40 min), and resuspended in RPMI 1640 medium, then supplemented with 10% fetal bovine serum and 1% antibiotic solution (penicillin 5000 Units/mL + streptomycin 5000 μg/mL). After 24 h of treatment, cell viability was evaluated by the modified colorimetric method based on the tetrazolium dye MTT (3-(4,5-dimethylthiazol-2-yl)-2,5- diphenyltetrazolium bromide). The MTT assay was used for in vitro cytotoxicity as previously described with the following modifications: cells were exposed to serially diluted concentrations of LQOFG-2, LQOFG-6, LQOFG-7 (1000 to 7.8 µM), and AmB (100 to 0.78 µM). The plates were kept at 37 °C for 24 h. MTT (5 mg/mL) was added and incubated for 4 h at 37 °C, after which the plates were centrifuged, the supernatant was discarded, and DMSO was added, leaving the plates under stirring to solubilize the formazan salts. Absorbance was measured at 540 nm using a plate reader (ELx800; Curitiba, PR, Brazil). The mean percentage of viable cells was calculated relative to the untreated control.

[4] = tested on: peripheral blood mononuclear cells (PBMCs); experiment: in vitro cytotoxicity in PBMC (MTT); format: cell-based, human; conditions: CC50 PBMC / EC50 axenic amastigotes
Procedure: as §1

[5] = tested on: L. infantum promastigotes; experiment: apoptosis/necrosis profiling, annexin V/PI staining, promastigotes; format: cell-based, Leishmania infantum
Procedure: (§2) To evaluate both apoptosis and necrosis, promastigote forms of L. infantum in the log phase of growth were incubated at several concentrations based on the IC50 values of LQOFG-2 (6.35; 12.7, 25.4, and 50.8 µM) LQOFG-6 (12.2, 24.4, 48.8 and 97.6 µM), and LQOFG-7 (11.65, 23.3, 46.6 and 93.2 µM), and AmB (1.5 and 6 µM) was used as the positive control. The plates were incubated for 24 h at 26 °C ± 1 °C in a B.O.D. incubator. After incubation, the promastigotes were washed three times in cold PBS, resuspended in binding buffer (10-mM HEPES, 140-mM NaCl, and 2.5-mM CaCl2, pH 7.4), and stained using a FITC Annexin V/Dead Cell Apoptosis Kit (BD Biosciences, San Jose, CA, USA) according to the manufacturer’s instructions. The stained cells were diluted and suspended in an Annexin V binding buffer (BD Biosciences, San Jose, CA, USA). Annexin V-FITC/propidium iodide (PI)-stained cells were analyzed using a BD FACSCanto II flow cytometer (BD Biosciences, San Jose, CA, USA). The raw data were analyzed using FlowJo 10.0.7 software (TreeStar Inc., Ashland, OR, USA).

[6] = tested on: L. infantum axenic amastigotes; experiment: apoptosis/necrosis profiling, annexin V/PI staining, axenic amastigotes; format: cell-based, Leishmania infantum
Procedure: as §2
To evaluate both apoptosis and necrosis of the amastigote-like forms of L. infantum, the protocol was followed. In each well, amastigotes were treated with the guanidine compounds and controls.

O=C(/N=C(/NCc1ccccc1)Nc1ccc(Br)cc1)c1ccccc1 [LQOFG-2, (Z)-N-((benzylamine)((4-bromophenyl)amino)methylene)benzamide]
IC50 [1]: 12.7 ± 0.25 µM
EC50 [2]: 26.1 ± 1.22 µM
inhibition at 31.2 µM [2]: 57.7%
HC50, toxicity to red blood cells (human red blood cells): >1000 µM
CC50 at 24 h [3]: 313 ± 3.23 µM
SI (CC50/EC50) [4]: 12.00
% cells, Early Apoptosis (AV+, PI−) ([5]; 0.5× IC50, 24 h): 0.27± 0.09%
% cells, Late Apoptosis (AV+, PI+) ([5]; 0.5× IC50, 24 h): 0.55 ± 0.04%
% cells, Necrosis (AV−, PI+) ([5]; 0.5× IC50, 24 h): 1.69 ± 0.28%
% cells, Early Apoptosis (AV+, PI−) ([5]; 1× IC50, 24 h): 0.12 ± 0.02%
% cells, Late Apoptosis (AV+, PI+) ([5]; 1× IC50, 24 h): 0.41 ± 0.14%
% cells, Necrosis (AV−, PI+) ([5]; 1× IC50, 24 h): 2.07 ± 0.23%
% cells, Early Apoptosis (AV+, PI−) ([5]; 2× IC50, 24 h): 0.35 ± 0.01%
% cells, Late Apoptosis (AV+, PI+) ([5]; 2× IC50, 24 h): 0.78 ± 0.15%
% cells, Necrosis (AV−, PI+) ([5]; 2× IC50, 24 h): 1.52 ± 0.24%
% cells, Early Apoptosis (AV+, PI−) ([5]; 4× IC50, 24 h): 0.34 ± 0.09%
% cells, Late Apoptosis (AV+, PI+) ([5]; 4× IC50, 24 h): 0.63 ± 0.12%
% cells, Necrosis (AV−, PI+) ([5]; 4× IC50, 24 h): 1.79 ± 0.59%
% cells, Early Apoptosis (AV+, PI−) ([6]; 0.5 × EC50, 24 h): 5.68 ± 0.29 ^a %
% cells, Late Apoptosis (AV+, PI+) ([6]; 0.5 × EC50, 24 h): 31.43 ± 0.03 ^b %
% cells, Necrosis (AV−, PI+) ([6]; 0.5 × EC50, 24 h): 13.20 ± 1.62%
% cells, Early Apoptosis (AV+, PI−) ([6]; 1 × EC50, 24 h): 8.13 ± 0.84 ^d %
% cells, Late Apoptosis (AV+, PI+) ([6]; 1 × EC50, 24 h): 33.23 ± 0.73 ^c %
% cells, Necrosis (AV−, PI+) ([6]; 1 × EC50, 24 h): 11.97 ± 0.66%
% cells, Early Apoptosis (AV+, PI−) ([6]; 2 × EC50, 24 h): 7.68 ± 0.39 ^d %
% cells, Late Apoptosis (AV+, PI+) ([6]; 2 × EC50, 24 h): 56.27 ± 1.51 ^d %
% cells, Necrosis (AV−, PI+) ([6]; 2 × EC50, 24 h): 15.93 ± 1.02%
% cells, Early Apoptosis (AV+, PI−) ([6]; 4 × EC50, 24 h): 7.55 ± 1.18 ^d %
% cells, Late Apoptosis (AV+, PI+) ([6]; 4 × EC50, 24 h): 67.50 ± 2.05 ^d %
% cells, Necrosis (AV−, PI+) ([6]; 4 × EC50, 24 h): 13.80 ± 1.47%

CC(C)(C)c1ccc(N/C(=N\C(=O)c2ccccc2)NCc2ccccc2)cc1 [LQOFG-6, (Z)-N-((benzylamine)((4-(tert-butyl)phenyl)amino)methylene)benzamide]
IC50 [1]: 24.4 ± 0.76 µM
EC50 [2]: 21.1 ± 1.13 µM
inhibition at 31.2 µM [2]: 59.9%
HC50, toxicity to red blood cells (human red blood cells): >1000 µM
CC50 at 24 h [3]: > 1000 µM
SI (CC50/EC50) [4]: >47.4
% cells, Early Apoptosis (AV+, PI−) ([5]; 0.5× IC50, 24 h): 0.65 ± 0.19%
% cells, Late Apoptosis (AV+, PI+) ([5]; 0.5× IC50, 24 h): 0.18 ± 0.01%
% cells, Necrosis (AV−, PI+) ([5]; 0.5× IC50, 24 h): 0.85 ± 0.09%
% cells, Early Apoptosis (AV+, PI−) ([5]; 1× IC50, 24 h): 0.46 ± 0.13%
% cells, Late Apoptosis (AV+, PI+) ([5]; 1× IC50, 24 h): 0.20 ± 0.03%
% cells, Necrosis (AV−, PI+) ([5]; 1× IC50, 24 h): 1.47 ± 0.21%
% cells, Early Apoptosis (AV+, PI−) ([5]; 2× IC50, 24 h): 0.51 ± 0.08%
% cells, Late Apoptosis (AV+, PI+) ([5]; 2× IC50, 24 h): 0.32 ± 0.06%
% cells, Early Apoptosis (AV+, PI−) ([5]; 4× IC50, 24 h): 0.91 ± 0.34%
% cells, Late Apoptosis (AV+, PI+) ([5]; 4× IC50, 24 h): 0.20 ± 0.03%
% cells, Early Apoptosis (AV+, PI−) ([6]; 0.5 × EC50, 24 h): 3.62 ± 0.39%
% cells, Late Apoptosis (AV+, PI+) ([6]; 0.5 × EC50, 24 h): 17.10 ± 0.80%
% cells, Early Apoptosis (AV+, PI−) ([6]; 1 × EC50, 24 h): 4.05 ± 0.22%
% cells, Late Apoptosis (AV+, PI+) ([6]; 1 × EC50, 24 h): 20.00 ± 1.74%
% cells, Necrosis (AV−, PI+) ([6]; 1 × EC50, 24 h): 6.57 ± 1.20%
% cells, Early Apoptosis (AV+, PI−) ([6]; 2 × EC50, 24 h): 5.72 ± 0.20 ^a %
% cells, Late Apoptosis (AV+, PI+) ([6]; 2 × EC50, 24 h): 25.50 ± 0.80%
% cells, Necrosis (AV−, PI+) ([6]; 2 × EC50, 24 h): 7.15 ± 0.21%
% cells, Early Apoptosis (AV+, PI−) ([6]; 4 × EC50, 24 h): 9.06 ± 0.70 ^d %
% cells, Late Apoptosis (AV+, PI+) ([6]; 4 × EC50, 24 h): 45.47 ± 1.30 ^d %
% cells, Necrosis (AV−, PI+) ([6]; 4 × EC50, 24 h): 8.14 ± 0.78%
